Test results published in patent US8710252B2, “Hepodxilin analog enantiomers” (priority 2006, dated 2014).

Legend:
washed human platelets = experiment: I-BOP evoked human platelet aggregation in vitro with washed platelets; assay type: cell-based; settings: washed human platelets, 5 ng I-BOP; compounds are methyl esters; read-out: IC50, inhibition of I-BOP evoked human platelet aggregation
Protocol: Washed human platelets were prepared as previously described (Pace-Asciak et al., 2002). The aggregation of platelets was carried out in a conventional 4-well aggregometer with stirring of the suspension maintained at 37° C. The platelet suspension was caused to aggregate with a thromboxane stable analog, I-BOP. The isolated enantiomer compounds and their respective racemates, PBT-3 and PBT-4, were added at various concentrations to cuvettes containing 375×10^6 platelets/ml, 1 min prior to the addition of 5 ng I-BOP (Cayman Chemicals, Ann Arbor, Mich.). Aggregation was monitored for an additional 5 min.

[1] = target: T1, Ga14-DBD-PPAR gamma-LBD fusion protein (Homo sapiens, UniProt P37231); experiment: PPAR gamma transactivation assay (Gal4-PPAR gamma LBD / UASx4-TK-luc reporter); assay type: cell-based
T1 construct: expressed in transfected cells; host or cells: mouse embryonic fibroblasts (MEFs) or ME3 cells
T1 sequence (P37231 238-503 limits assumed): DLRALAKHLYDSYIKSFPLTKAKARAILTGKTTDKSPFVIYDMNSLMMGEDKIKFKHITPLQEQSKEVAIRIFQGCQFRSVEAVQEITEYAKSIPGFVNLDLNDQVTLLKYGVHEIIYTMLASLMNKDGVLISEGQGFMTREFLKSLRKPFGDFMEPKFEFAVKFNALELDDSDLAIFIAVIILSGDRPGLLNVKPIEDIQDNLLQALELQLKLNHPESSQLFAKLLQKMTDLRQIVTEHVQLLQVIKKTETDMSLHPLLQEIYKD
From the text: The UASx4-TK-luc reporter construct (where UAS refers to “upstream activator sequence”) contains four Ga14-responsive elements. The plasmid Ga14-PPAR gammaLBD encodes a Ga14-DBD-PPAR gamma-LBD fusion protein (i.e. the DNA-binding domain, DBD, of Ga14 fused to the ligand-binding domain, LBD, of PPAR gamma) capable of transactivating the UASx4-TK-luc reporter plasmid by binding to the UAS. The CMV-beta-galactosidase plasmid (where CMV is cytomegalovirus) was used for normalization of experimental values.
The cells were replated, typically in 24 well plates, so that at the time of transfection the cells were 50-70% confluent.
Briefly, per well in a 24 well plate, UASx4TKIuc (0.2 microg) Ga14-PPAR gammaLBD (or pM-hPPAR gamma-LBD; 0.1 microg) and CMV-beta-galactosidase (0.05 microg) in 30 μL DMEM (free of serum and antibiotics) was mixed with 30 microL DMEM (free of serum and antibiotics) containing 1 microL metafectenein. The mixture was incubated at room temperature for 20 min to allow formation of nucleic acid-lipid complexes and then approximately 60 micros was added to each well containing the 50-70% confluent cells. […] Cells were harvested after 12-24 hours and luciferase and beta-galactosidase activities were measured according to standard protocols.
Each experiment was carried out with triplicate samples with 0.1, 1 or 10 microM racemate or purified enantiomer.

[2] = test system: Caspase-3 cleavage in K562 cells; experiment: Caspase-3 cleavage in K562 cells, Western blot; assay type: cell-based, human; settings: 10 uM, 6 h, FIG. 7
Protocol: Cell culture: Human leukemia K562 cells, obtained from ATCC (American Type Culture Collection), were maintained in RPMI 1640 medium containing 100 units/ml penicillin G, 100 μg/ml streptomycin, 10% (v/v) fetal calf serum in a humidified atmosphere with 5% CO2 at 37° C. The ability of the cells to exclude trypan Blue dye was used to assess cell viability.
Cell treatment: K562 cells were stored in 0.5% FBS for 15 min before the experiment. The cells, 6×10^5, were treated with DMSO as vehicle, or with PBT-3, PBT-4, or compounds A, B, C and D at 10 uM/dish (8 ml). Gleevec™ (STI) was used at 5 μM/dish. All experiments were without FBS and treatment lasted 6 h at 37° C. Treatment was terminated by washing the cells with ice-cold PBS buffer by centrifugation at 500×g for 5 min. Cells were lysed in buffer containing 20 mM Tris-HCl buffer, pH 7.4, 150 NaCl, 1 mM EDTA, 1 mM EGTA, 1% Triton X-100 2.5 mM sodium pyrophosphate, 1 mM beta-glycerophosphate, 1 mM sodium orthovanadate, 1 mM PMSF and 1 μM leupeptin/1 μM Aprotinin/1 μM pepstain A, on ice for 30 min. The lysates were clarified by centrifugation at 15,000×g for 15 min at 4° C. Lysates were subjected to protein assay (BCA, Pierce) and kept at −80° C.
Western blot: Thirty micrograms of protein from each sample were taken, and SDS-PAGE sample loading buffer was added. The mixture was boiled for 5 min. After centrifugation, the samples were loaded onto 15% SDS-PAGE gel and the gel was run (BioRad Protein II) for 2-3 h at 20 mA. The protein was transferred to a Trans-blot Nitrocellulose membrane (Millipore). Protein bands on the membranes were checked visually with Ponceau S-staining to ensure equivalent protein load/transfer comparing different samples. Membranes were blocked with 5% non-fat dry milk in PBS containing 0.5% Tween-20 for 1 h at room temperature, and then incubated with 1:1000 dilution of anti-caspase-3 antibody (BD Transduction Laboratories, Mississauga, Canada) overnight at 4° C. Secondary antibody of horseradish peroxidase anti-mouse antibody was used at 1:2000 dilution. Bound antibodies were detected by using enhanced chemilluminescence (ECL kit, Amersham Pharmacia Biotech) and the membranes were exposed to Hyper film for ECL detection. The same membrane was stripped by placing in buffer containing 62.5 mM Tris-HCl, pH 6.8/2% SDS/100 mM beta-mercaptoethanol at 50° C. for 30 min. The membrane was washed 3 times with PBS containing 0.5% Tween-20. The membrane was blocked by PBS buffer containing 0.5% Tween-20 and 5% skim milk. The anti-tubulin antibody (Santa Cruz, Calif.) was diluted 1:1000 and membrane analyzed by ECL as described above.

[3] = test system: human leukemic K562 cells; experiment: Inhibition of 3H-methyl thymidine incorporation (cell proliferation) in K562 cells; assay type: cell-based; settings: 6 h treatment; compounds are methyl esters
Protocol: The human leukemic K562 cell line was established as previously reported (Qiao et al., 2003). Cells were maintained as suspension cultures in RPMI 1640 medium supplemented with 100 1.1/ml penicillin G, 100 μg/ml streptomycin, 10% (v/v) […] in a humidified atmosphere of 5% CO2 at 37° C. Cell viability was assessed by the exclusion of Trypan blue. Incorporation of ^3H-methyl thymidine into cell DNA was used as an assay for cell proliferation. Cells ([…]) were starved for 12 h, and were subsequently treated with the test compounds. Compounds A, B, C and D were made up at various concentrations in DMSO ([…] A, B, C and D. Concentrations were doubled for racemates PBT-3 and PBT-4) and 1 of these solutions was added/ml volume of cells. Cells were suspended in RPMI 1640 medium. At 6 h post-treatment at 37° C. the cells were fixed and denatured essentially as described in Qiao et al. (2003), harvested and passed through Whatman GF/C glass filters. The filters were washed and counted for radioactivity.

SMILES: CCCCC/C=C\CC1CC1C(O)/C=C\C/C=C\CCCC(=O)OC (centres unmarked) [PBT-3, 10-hydroxy-11,12-cyclopropyl-eicosa-5Z,8Z,14Z-trienoic acid methyl ester, reference compound]
- IC50 (washed human platelets): 54 ± 9 nM
- PPAR Activation as % of positive control (Avandia) ([1]; 10 microM racemate, Table 3): 18 +/− 1 % of positive control (Avandia)
- PPAR Activation as % of positive control (Avandia) ([1]; Experiment 1, 0.1 microM): 11 +/− 2 % of positive control (Avandia)
- PPAR Activation as % of positive control (Avandia) ([1]; Experiment 1, 1 microM): 15 +/− 2 % of positive control (Avandia)
- PPAR Activation as % of positive control (Avandia) ([1]; Experiment 1, 10 microM): 42 +/− 8 % of positive control (Avandia)
- PPAR Activation as % of positive control (Avandia) ([1]; Experiment 2, 0.1 microM): 4 +/− 1 % of positive control (Avandia)
- PPAR Activation as % of positive control (Avandia) ([1]; Experiment 2, 1 microM): 8 +/− 1 % of positive control (Avandia)
- PPAR Activation as % of positive control (Avandia) ([1]; Experiment 2, 10 microM): 41 +/− 5 % of positive control (Avandia)
- PPAR Activation as % of positive control (Avandia) ([1]; Experiment 3, 0.1 microM): 8 +/− 2 % of positive control (Avandia)
- PPAR Activation as % of positive control (Avandia) ([1]; Experiment 3, 1 microM): 18 +/− 4 % of positive control (Avandia)
- PPAR Activation as % of positive control (Avandia) ([1]; Experiment 3, 10 microM): 32 +/− 4 % of positive control (Avandia)
- Cleavage of caspase-3 [2]: increased cleavage of caspase-3
- IC50 [3]: 4600 nM

SMILES: CCCCC/C=C\CC1CC1C(O)/C=C\C/C=C\CCCC(=O)OC (centres unmarked) [PBT-4, 10-hydroxy-11,12-cyclopropyl-eicosa-5Z,8Z,14Z-trienoic acid methyl ester, reference compound]
- IC50 (washed human platelets): 79 ± 17 nM
- PPAR Activation as % of positive control (Avandia) ([1]; 10 microM racemate, Table 3): 19 +/− 1 % of positive control (Avandia)
- PPAR Activation as % of positive control (Avandia) ([1]; Experiment 1, 0.1 microM): 13 +/− 2 % of positive control (Avandia)
- PPAR Activation as % of positive control (Avandia) ([1]; Experiment 1, 1 microM): 13 +/− 3 % of positive control (Avandia)
- PPAR Activation as % of positive control (Avandia) ([1]; Experiment 1, 10 microM): 60 +/− 9 % of positive control (Avandia)
- PPAR Activation as % of positive control (Avandia) ([1]; Experiment 2, 0.1 microM): 4 +/− 1 % of positive control (Avandia)
- PPAR Activation as % of positive control (Avandia) ([1]; Experiment 2, 1 microM): 7 +/− 1 % of positive control (Avandia)
- PPAR Activation as % of positive control (Avandia) ([1]; Experiment 2, 10 microM): 32 +/− 1 % of positive control (Avandia)
- PPAR Activation as % of positive control (Avandia) ([1]; Experiment 3, 0.1 microM): 7 +/− 1 % of positive control (Avandia)
- PPAR Activation as % of positive control (Avandia) ([1]; Experiment 3, 1 microM): 15 +/− 7 % of positive control (Avandia)
- PPAR Activation as % of positive control (Avandia) ([1]; Experiment 3, 10 microM): 33 +/− 8 % of positive control (Avandia)
- Cleavage of caspase-3 [2]: increased cleavage of caspase-3
- IC50 [3]: 4900 nM
